In brackets after ≈: the same amount, converted by molar mass. Several values for one entry are separate records, joined by “and”; a condition that tells them apart may be missing. Equal entries are not always repeated. Structures can show the parent of a compound that is named as a salt.
How the values were obtained:
[1] = tested on: Bacillus substilis PCI 219; assay: antibacterial activity, MIC by agar dilution method; type: cell-based; details: PCI219, medium N, pH 7.0
From the text: (§1) Table 1 indicates the antibacterial and antifungal activity of AM-2282 in terms of the minimum inhibitory concentration (mcg/ml) determined by agar dilution method.
(§2) *N: Peptone 0.5 % W/V, meat extract 0.5 % W/V, agar 1.2 % W/V, pH 7.0.

Escherichia coli NIJH = assay: as above; type: cell-based; details: medium N, pH 7.0
From the text: as §1, §2

[2] = tested on: Mycobacterium Smegmatis ATCC 607; assay: as above; type: cell-based; details: Mycolicibacterium smegmatis, ATCC607, medium N, pH 7.0
From the text: as §1, §2

[3] = tested on: Proteus vulgaris IFO 3167; assay: as above; type: cell-based; details: IFO3167, medium N, pH 7.0
From the text: as §1, §2

[4] = tested on: Pseudomonas aeruginosa P-3; assay: as above; type: cell-based; details: P3, medium N, pH 7.0
From the text: as §1, §2

Sarcina lutea PCI 1001 = assay: as above; type: cell-based; details: Micrococcus luteus, PCI1001, medium N, pH 7.0
From the text: as §1, §2

[5] = tested on: Staphylococcus aureus FDA 209P; assay: as above; type: cell-based; details: FDA209P, medium N, pH 7.0
From the text: as §1, §2

Xanthomonas oryzae = assay: microbe, parasite or virus in culture; type: cell-based; details: pH 7
Aspergillus brevipus = assay: antifungal activity, MIC by agar dilution method; type: cell-based; details: medium P, pH 6.8
From the text: as §1
(§3) P: Potato extract containing glucose 1.0 % W/V and agar 1.2 % W/V, pH 6.8

Aspergillus fumigatus = assay: antifungal activity, MIC by agar dilution method; type: cell-based; details: medium P, pH 6.8
From the text: as §1, §3

Aspergillus niger = assay: antifungal activity, MIC by agar dilution method; type: cell-based; details: medium P, pH 6.8
From the text: as §1, §3

Candida albicans = assay: antifungal activity, MIC by agar dilution method; type: cell-based; details: medium P, pH 6.8
From the text: as §1, §3

Candida pseudotropicalis = assay: antifungal activity, MIC by agar dilution method; type: cell-based; details: Kluyveromyces marxianus, medium P, pH 6.8
From the text: as §1, §3

Cryptococcus neoformans = assay: antifungal activity, MIC by agar dilution method; type: cell-based; details: medium P, pH 6.8
From the text: as §1, §3

Microsporum gipseum = assay: antifungal activity, MIC by agar dilution method; type: cell-based; details: medium P, pH 6.8
From the text: as §1, §3

Saccharomyces sake = assay: antifungal activity, MIC by agar dilution method; type: cell-based; details: medium P, pH 6.8
From the text: as §1, §3

Sclerotinia cinerea = assay: antifungal activity, MIC by agar dilution method; type: cell-based; details: medium P, pH 6.8
From the text: as §1, §3

[6] = tested on: Trichophyton mentagrophytes; assay: antifungal activity, MIC by agar dilution method; type: cell-based; details: medium P, pH 6.8
From the text: as §1, §3

Trichophyton rubrum = assay: antifungal activity, MIC by agar dilution method; type: cell-based; details: medium P, pH 6.8
From the text: as §1, §3

Piricularia oryzae = assay: microbe, parasite or virus in culture; type: cell-based; details: pH 6.8
edema and ulcer = assay: activity on edema and ulcer in rats; type: in vivo
Procedure: The present antibiotic substance is a basic nitrogen-containing compound, viz. a so-called alkaloid-like substance. […] The minimum effective concentration is established to be 1.0 mg/kg.

[7] = acute toxicity in mice (Behrens-Karber method); details: mouse, in vivo, ip.
[8] = solubility in various solvent; type: physicochemical
[9] = tested on: arteriolar pressure (systolic) in the tail; assay: test for hypertensive effect in rats disposed to spontaneous hypertension

With `CN[C@@H]1CC2O[C@@](C)([C@@H]1OC)n1c3ccccc3c3c4c(c5c6ccccc6n2c5c31)C(=O)NC4` [AM-2282] the MIC [1] was over 200 µg/mL, the MIC (Escherichia coli NIJH) was over 200 µg/mL and the MIC [2] was 50 µg/mL (≈ 107 µM). For the same compound, the MIC [3] was over 200 µg/mL, the MIC [4] was over 200 µg/mL and the MIC (Sarcina lutea PCI 1001) was 25 µg/mL (≈ 53.6 µM). For the same compound, the MIC [5] was over 200 µg/mL, the MIC (Xanthomonas oryzae) was 200 µg/mL (≈ 429 µM) and the MIC (Aspergillus brevipus) was 3.12 µg/mL (≈ 6.69 µM). For the same compound, the MIC (Aspergillus fumigatus) was 12.5 µg/mL (≈ 26.8 µM), the MIC (Aspergillus niger) was 25 µg/mL (≈ 53.6 µM) and the MIC (Candida albicans) was 6.25 µg/mL (≈ 13.4 µM). It also gave an MIC (Candida pseudotropicalis) of 3.12 µg/mL (≈ 6.69 µM), an MIC (Cryptococcus neoformans) of 50 µg/mL (≈ 107 µM) and an MIC (Microsporum gipseum) of over 100 µg/mL. For the same compound, the MIC (Saccharomyces sake) was 3.12 µg/mL (≈ 6.69 µM), the MIC (Sclerotinia cinerea) was 0.78 µg/mL (≈ 1.67 µM) and the MIC [6] was 25 µg/mL (≈ 53.6 µM). For the same compound, the MIC (Trichophyton rubrum) was 6.25 µg/mL (≈ 13.4 µM), the MIC (Piricularia oryzae) was 0.78 µg/mL (≈ 1.67 µM) and the minimal effective dose (edema and ulcer; Rattus norvegicus, read-out: minimum effective concentration (activity on edema and ulcer)) was 1 mg/kg. The “activity on edema and ulcer” value (edema and ulcer; rats) was “exhibit an activity on edema and ulcer”, the LD50 [7] was 6.6 mg/kg and the Solubility ([8]; in chloroform) was “Sparingly soluble”. The Solubility ([8]; in dimethyl formamide) was “Soluble”, the Solubility ([8]; in dimethyl sulfoxide) was “Soluble” and the Solubility ([8]; in ethyl acetate) was “Sparingly soluble”. The Solubility ([8]; in fat) was “soluble in fat”, the Solubility ([8]; in methanol) was “Sparingly soluble” and the Solubility ([8]; in n-butyl acetate) was “Sparingly soluble”. The Solubility ([8]; in n-hexane) was “Insoluble”, the Solubility ([8]; in petroleum ether) was “Insoluble” and the Solubility ([8]; in water) was “Insoluble”.
In the case of `CN[C@@H]1CC2O[C@@](C)([C@@H]1OC)n1c3ccccc3c3c4c(c5c6ccccc6n2c5c31)C(=O)NC4` [Hydrochloride of AM-2282], the “Degree of hypertension (%)” value ([9]; 0.16 mg/kg, oral, after 1 hr) is reported as -2% and 2%, the “Degree of hypertension (%)” value ([9]; 0.16 mg/kg, oral, after 3 hrs) is reported as 1% and 2% and the “Degree of hypertension (%)” value ([9]; 0.16 mg/kg, oral, after 5 hrs) is reported as 1% and 2%. The “Degree of hypertension (%)” value ([9]; 0.3 mg/kg, oral, after 3 hrs) was 23% and 13%, the “Degree of hypertension (%)” value ([9]; 0.3 mg/kg, oral, after 5 hrs) was 11% and 12% and the “Degree of hypertension (%)” value ([9]; 0.63 mg/kg, oral, after 1 hr) was 13% and 17%. For the same compound, the “Degree of hypertension (%)” value ([9]; 0.63 mg/kg, oral, after 3 hrs) was 13% and 24%, the “Degree of hypertension (%)” value ([9]; 0.63 mg/kg, oral, after 5 hrs) was 25% and 24% and the “Degree of hypertension (%)” value ([9]; 1.25 mg/kg, oral, after 1 hr) was 15% and 18%. For the same compound, the “Degree of hypertension (%)” value ([9]; 1.25 mg/kg, oral, after 3 hrs) was 23% and 25%, the “Degree of hypertension (%)” value ([9]; 1.25 mg/kg, oral, after 5 hrs) was 31% and 39% and the minimal effective dose ([9]; Rattus norvegicus, po, read-out: minimum dose rate at which the hypertensive effect appears) was 0.3 mg/kg.
In the case of `CC(N)(Cc1ccc(O)c(O)c1)C(=O)O` (stereo not drawn) [α-methyl DOPA, reference compound], the “Degree of hypertension (%)” value ([9]; 100 mg/kg, after 1 hr) is reported as 7%, the “Degree of hypertension (%)” value ([9]; 100 mg/kg, after 3 hrs) is reported as 13% and the “Degree of hypertension (%)” value ([9]; 100 mg/kg, after 5 hrs) is reported as 13%.

— US4107297A, “Antibiotic compound” (The Kitasato Institute, priority 1976, dated 1978)
